From patent US20100099673A1, “DECAHYDROQUINOLINE ANALOGS AS CB2 RECEPTOR MODULATORS, USEFUL IN THE TREATMENT OF PAIN, RESPIRATORY AND NON-RESPIRATORY DISEASES” (priority 2007, published 2010) come the findings set out here.

SMILES strings stand for the structures. Like-named read-outs stand apart in the source and are kept apart here.

The target in experiment [1] is human CB2 (Homo sapiens, UniProt P34972). Briefly: Cyclic AMP assay (HTRF), CHO cells expressing human CB2. It is filed as cell-based. As to conditions: for Emax: read-out: CB2 Emax. How it is done: (§1) Chinese Hamster Ovary cells (CHO) expressing human CB1 or human CB2 (3.3×10^5 cells/ml) were preincubated for 15 min at room temperature with tested agonist and 3-isobutyl-1-methylxanthine (IBMX; 200 μM) in phosphate buffered saline containing 1 mg/ml BSA (assay buffer) followed by 30 min incubation with forskolin in a total volume of 10 μl. The optimal forskolin concentration for each cell line was established in a separate experiment and adjusted to stimulate 70% of maximal cAMP response. cAMP content was measured using an HTRF assay (CisBio) according to the manufacturer's two step protocol.
(§2) In this assay, compounds of the invention have an IP ranging from 1 nM to >17000 nM. The Examples below have an IP ranging from 1 nM to >17000 nM.

Experiment [2] has as its target human CB1 (Homo sapiens, UniProt P21554). Briefly: Cyclic AMP assay (HTRF), CHO cells expressing human CB1. It is filed as cell-based. On the procedure:
as §1, §2
For orientation: In TR-FRET formats the signal depends on donor and acceptor labels being close together.

Setting [3] is: IP of agonist in forskolin-stimulated cAMP HTRF assay, CHO cells expressing human CB2, read-out: CB2 (HTRF).
The mark [4] stands for this setting: forskolin-stimulated cAMP HTRF assay, CHO cells expressing human CB2.
The mark [5] stands for this setting: IP of agonist in forskolin-stimulated cAMP HTRF assay, CHO cells expressing human CB1, read-out: CB1 (HTRF).

Chain of human CB2 (P34972 whole entry): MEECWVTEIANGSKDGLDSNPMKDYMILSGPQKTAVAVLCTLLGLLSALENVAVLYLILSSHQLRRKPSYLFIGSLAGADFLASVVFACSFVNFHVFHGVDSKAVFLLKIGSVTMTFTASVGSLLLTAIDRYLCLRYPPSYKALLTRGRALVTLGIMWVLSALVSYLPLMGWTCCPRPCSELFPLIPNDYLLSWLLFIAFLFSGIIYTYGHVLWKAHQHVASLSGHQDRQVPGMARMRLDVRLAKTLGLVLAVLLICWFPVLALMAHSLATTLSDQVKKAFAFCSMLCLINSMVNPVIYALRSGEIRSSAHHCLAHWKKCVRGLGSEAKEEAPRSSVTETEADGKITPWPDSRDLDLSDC
Chain of human CB1 (P21554 whole entry): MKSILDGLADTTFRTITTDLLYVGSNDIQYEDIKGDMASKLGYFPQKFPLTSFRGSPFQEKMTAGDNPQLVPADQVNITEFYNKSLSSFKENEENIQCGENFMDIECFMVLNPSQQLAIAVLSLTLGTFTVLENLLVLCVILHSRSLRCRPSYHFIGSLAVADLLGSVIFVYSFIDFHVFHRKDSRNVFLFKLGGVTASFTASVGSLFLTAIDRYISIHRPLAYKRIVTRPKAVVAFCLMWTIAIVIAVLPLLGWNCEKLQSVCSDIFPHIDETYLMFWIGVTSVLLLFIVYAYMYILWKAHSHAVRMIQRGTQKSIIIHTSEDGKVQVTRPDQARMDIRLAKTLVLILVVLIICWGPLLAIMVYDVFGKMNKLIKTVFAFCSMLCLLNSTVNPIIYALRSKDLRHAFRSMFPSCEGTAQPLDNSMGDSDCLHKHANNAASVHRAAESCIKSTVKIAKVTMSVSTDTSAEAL

For the molecule `CC(C)(O)c1ccnc(N2CC[C@](O)(c3ccccc3)[C@H]3CCCC[C@H]32)c1` (relative stereo) [Example 287, (cis)-1-[4-(1-hydroxy-1-methylethyl)pyridin-2-yl]-4-phenyldecahydroquinolin-4-ol], the EC50 in experiment [1] (setting [3]) was 1.3 nM; in experiment [2] (setting [5]) it was 10500 nM. In addition, the Emax in experiment [1] (setting [4]) was 99%.

For the molecule `O=C(c1cccnc1)N1CC[C@](O)(c2ccccc2)[C@H]2CCCC[C@H]21` (relative stereo) [Example 135, cis-4-phenyl-1-(pyridin-3-ylcarbonyl)decahydroquinolin-4-ol], the values for the EC50 in experiment [1] (setting [3]) and in experiment [2] (setting [5]) were 10 nM and 6780 nM, respectively. In experiment [1] (setting [4]), the maximal response (Emax) was 100%.

As for `O=C(c1ccon1)N1CC[C@](O)(c2ccccc2)[C@H]2CCCC[C@H]21` (single isomer, unassigned) [Example 131, 1-(isoxazol-3-ylcarbonyl)-4-phenyldecahydroquinolin-4-ol], the EC50 is 37 nM in experiment [1] (setting [3]) and more than 17000 nM in experiment [2] (setting [5]). In addition, the Emax in experiment [1] (setting [4]) worked out at 100%.

Regarding `O=C(Nc1cccnc1)N1CC[C@](O)(c2ccccc2)[C@H]2CCCC[C@H]21` [Example 291, 4-hydroxy-4-phenyl-n-pyridin-3-yloctahydroquinoline-1(2H)-carboxamide], the Emax in experiment [1] (CHO) is 76%. Besides, the results for the EC50 in experiment [1] (setting [3]) and in experiment [2] (setting [5]) were 1100 nM and more than 17000 nM, respectively.

As to `Cn1cc(S(=O)(=O)N2CC[C@](O)(c3ccccc3)[C@H]3CCCC[C@H]32)c(C(F)(F)F)n1` (stereo in doubt) [Example 289, 1-{[1-methyl-3-(trifluoromethyl)-1h-pyrazol-4-yl]sulfonyl}-4-phenyldecahydroquinolin-4-ol], the EC50 in experiment [1] (setting [3]) is 41 nM; in experiment [2] (setting [5]), more than 17000 nM. For the same molecule, the Emax in experiment [1] (setting [4]) was found to be 101%.

Take `O[C@]1(c2ccccc2)CCN(Cc2n[nH]c3ccccc23)[C@@H]2CCCC[C@@H]21` (stereo in doubt) [Example 274, 1-(1H-indazol-3-ylmethyl)-4-phenyldecahydroquinolin-4-ol]: the figures for the EC50 in experiment [1] and in experiment [2] were 19 nM and more than 17000 nM, respectively. For the same molecule, the Emax in experiment [1] (CHO) was found to be 102%.

For `O=C(c1ccccc1)N1CCC(O)(c2cccnc2)[C@H]2CCCC[C@@H]21` (stereo in doubt) [Example 258, 1-benzoyl-4-pyridin-3-yldecahydroquinolin-4-ol], in experiment [1] (setting [3]), the EC50 came to 938 nM. Also, the Emax in experiment [1] (setting [4]) was 86%.

As to `O=C(c1ccccc1)N1CCC(O)(Cc2ccccc2)[C@H]2CCCC[C@@H]21` (stereo partly shown) [Example 260, 1-benozyl-4-benzyldecahydroquinolin-4-ol], in experiment [1] (setting [3]), the EC50 worked out at 90 nM. Moreover, the Emax in experiment [1] (setting [4]) turned out to be 93%.

A word on the Emax: it is the greatest response seen or fitted, relative to the assay's reference.
